Source: US20100267561A1, “HERBICIDAL PYRIDAZINONE DERIVATIVES” (priority 2007, published 2010)
Where two headings read alike, the source gives them in different places.

What was measured:
Type in all cases: in vivo
[1] = test system: morningglory (Ipomoea coccinea); assay: Test A pre-/postemergence plant response
How it was run: (§1)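 Ratings are visual, 0–100, where 100 means complete control and 0 no effect, taken roughly 10 days after treatment by comparison with untreated controls. Formulation: non-phytotoxic solvent mixture with surfactant.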

[2] = test system: corn (Zea mays); assay: Test A pre-/postemergence plant response; settings: for Plant response rating, Corn: 1000 g ai/ha; for Corn plant response rating (crop injury, 0 = no effect, 100 = complete kill) at 125 g/ha / Corn plant response rating (crop injury, 0 = no effect, 100 = complete kill) at 500 g/ha: Zea mays, 240 h; for Corn plant response rating (crop injury, 0 = no effect, 100 = complete kill) at 125 g/ha: 125 g ai/ha; for Corn plant response rating (crop injury, 0 = no effect, 100 = complete kill) at 500 g/ha: 500 g ai/ha
How it was run: as §1

[3] = test system: pigweed (Amaranthus retroflexus); assay: Test A pre-/postemergence plant response; settings: for Plant response rating, Pigweed: 1000 g ai/ha; for pest or weed control at 125 g/ha / pest or weed control at 500 g/ha: Amaranthus retroflexus, 240 h, read-out: Plant response rating, Pigweed; for pest or weed control at 125 g/ha: 125 g ai/ha; for pest or weed control at 500 g/ha: 500 g ai/ha
How it was run: as §1

[4] = test system: wheat (Triticum aestivum); assay: Test A pre-/postemergence plant response; settings: for Plant response rating, Wheat: 1000 g ai/ha; for plant injury at 125 g/ha / plant injury at 500 g/ha: Triticum aestivum, 240 h, read-out: Plant response rating, Wheat; for plant injury at 125 g/ha: 125 g ai/ha; for plant injury at 500 g/ha: 500 g ai/ha
How it was run: as §1

[5] = test system: barnyardgrass (Echinochloa crus-galli); assay: Test A pre-/postemergence plant response; settings: for Plant response rating, Barnyardgrass: 1000 g ai/ha; for pest or weed control at 125 g/ha / pest or weed control at 500 g/ha: Echinochloa crus-galli, 240 h, read-out: Plant response rating, Barnyardgrass; for pest or weed control at 125 g/ha: 125 g ai/ha; for pest or weed control at 500 g/ha: 500 g ai/ha
How it was run: as §1

[6] = test system: velvetleaf (Abutilon theophrasti); assay: Test A pre-/postemergence plant response
How it was run: as §1

[7] = test system: large crabgrass (Digitaria sanguinalis); assay: Test A pre-/postemergence plant response; settings: for Plant response rating, Crabgrass, Large: 1000 g ai/ha; for pest or weed control at 125 g/ha / pest or weed control at 500 g/ha: Digitaria sanguinalis, 240 h, read-out: Plant response rating, Crabgrass, Large; for pest or weed control at 125 g/ha: 125 g ai/ha; for pest or weed control at 500 g/ha: 500 g ai/ha
How it was run: as §1

[8] = test system: giant foxtail (Setaria faberi); assay: Test A pre-/postemergence plant response; settings: for Plant response rating, Foxtail, Giant: 1000 g ai/ha; for pest or weed control at 125 g/ha / pest or weed control at 500 g/ha: Setaria faberi, 240 h, read-out: Plant response rating, Foxtail, Giant; for pest or weed control at 125 g/ha: 125 g ai/ha; for pest or weed control at 500 g/ha: 500 g ai/ha
How it was run: as §1

[9] = test system: yellow nutsedge (Cyperus esculentus); assay: Test B pre-/postemergence plant response; settings: Preemergence
How it was run: (§2)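 Preemergence and postemergence (plants 2-18 cm, 1- to 4-leaf stage) applications used test chemicals in a non-phytotoxic solvent with surfactant. Plants were held in a greenhouse 13 to 15 days, then rated visually against controls on a 0-100 scale (0 no effect, 100 complete control).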

[10] = test system: bermudagrass (Cynodon dactylon); assay: Test B pre-/postemergence plant response
How it was run: as §2

[11] = test system: cocklebur (Xanthium strumarium); assay: Test B pre-/postemergence plant response; settings: Preemergence
How it was run: as §2

[12] = Postemergence, 1000 g ai/ha, 0 to 100 scale, 0 no effect, 100 complete control
[13] = Preemergence, 1000 g ai/ha, 0 to 100 scale (0 no effect, 100 complete control)
[14] = Postemergence, 0 to 100 scale, 0 no effect, 100 complete control
[15] = Preemergence, 0 to 100 scale (0 no effect, 100 complete control)
[16] = 31 g ai/ha, 0 to 100 scale, 0 no effect, 100 complete control
[17] = Postemergence, 125 g ai/ha, 0 to 100 scale, 0 no effect, 100 complete control
[18] = Postemergence, 500 g ai/ha, 0 to 100 scale, 0 no effect, 100 complete control
[19] = Preemergence, 125 g ai/ha, 0 to 100 scale (0 no effect, 100 complete control)
[20] = Preemergence, 500 g ai/ha, 0 to 100 scale (0 no effect, 100 complete control)
[21] = post-emergence, Postemergence, 0 to 100 scale, 0 no effect, 100 complete control
[22] = pre-emergence, Preemergence, 0 to 100 scale (0 no effect, 100 complete control)

## Cc1cc(-c2ccc(C(F)(F)F)cc2)nn1-c1c(OC(=O)C(C)(C)C)cnn(C)c1=O [Compound 2]
[1]; [12]
  Plant response rating, Morningglory: 0
[1]; [13]
  Plant response rating, Morningglory: 0
[2]; [14]
  Plant response rating, Corn: 90
[2]; [15]
  Plant response rating, Corn: 80
[3]; [14]
  Plant response rating, Pigweed: 0
[3]; [15]
  Plant response rating, Pigweed: 0
[4]; [14]
  Plant response rating, Wheat: 90
[4]; [15]
  Plant response rating, Wheat: 90
[5]; [14]
  Plant response rating, Barnyardgrass: 100
[5]; [15]
  Plant response rating, Barnyardgrass: 100
[6]; [12]
  Plant response rating, Velvetleaf: 40
[6]; [13]
  Plant response rating, Velvetleaf: 60
[7]; [14]
  Plant response rating, Crabgrass, Large: 80
[7]; [15]
  Plant response rating, Crabgrass, Large: 100
[8]; [14]
  Plant response rating, Foxtail, Giant: 90
[8]; [15]
  Plant response rating, Foxtail, Giant: 100
[9]; [16]
  Plant response rating, Nutsedge, Yellow: 0
[9]; 62 g ai/ha, scale 0 to 100
  Plant response rating, Nutsedge, Yellow: 0
[9]; 125 g ai/ha, scale 0 to 100
  Plant response rating, Nutsedge, Yellow: 0
[9]; 250 g ai/ha, scale 0 to 100
  Plant response rating, Nutsedge, Yellow: 0
[10]; 250 g ai/ha, preemergence, 0-100 scale
  Bermudagrass plant response rating: 100
[10]; Preemergence, 31 g ai/ha, 0 to 100 scale, 0 no effect, 100 complete control
  Plant response rating, Bermudagrass: 100
[10]; Preemergence, 62 g ai/ha, scale 0 to 100
  Plant response rating, Bermudagrass: 100
[10]; Preemergence, 125 g ai/ha, scale 0 to 100
  Plant response rating, Bermudagrass: 100
[11]; [16]
  Plant response rating, Cocklebur: 0
[11]; 62 g ai/ha, scale 0 to 100
  Plant response rating, Cocklebur: 0
[11]; 125 g ai/ha, scale 0 to 100
  Plant response rating, Cocklebur: 0
[11]; 250 g ai/ha, scale 0 to 100
  Plant response rating, Cocklebur: 0

## Cc1cn(-c2ccc(Cl)cc2)nc1-c1c(O)cnn(C)c1=O [Compound 30, 4-[1-(4-chlorophenyl)-4-methyl-1H-pyrazol-3-yl]-5-hydroxy-2-methyl-3(2H)-pyridazinone]
[1]; [17]
  Plant response rating, Morningglory: 0
[1]; [18]
  Plant response rating, Morningglory: 0
[1]; [19]
  Plant response rating, Morningglory: 0
[1]; [20]
  Plant response rating, Morningglory: 0
[2]; [21]
  Corn plant response rating (crop injury, 0 = no effect, 100 = complete kill) at 125 g/ha: 0%
  Corn plant response rating (crop injury, 0 = no effect, 100 = complete kill) at 500 g/ha: 70%
[2]; [22]
  Corn plant response rating (crop injury, 0 = no effect, 100 = complete kill) at 125 g/ha: 0%
  Corn plant response rating (crop injury, 0 = no effect, 100 = complete kill) at 500 g/ha: 70%
[3]; [21]
  pest or weed control at 125 g/ha: 0%
  pest or weed control at 500 g/ha: 0%
[3]; [22]
  pest or weed control at 125 g/ha: 0%
  pest or weed control at 500 g/ha: 0%
[4]; [21]
  plant injury at 125 g/ha: 40%
  plant injury at 500 g/ha: 50%
[4]; [22]
  plant injury at 125 g/ha: 40%
  plant injury at 500 g/ha: 90%
[5]; [21]
  pest or weed control at 125 g/ha: 50%
  pest or weed control at 500 g/ha: 90%
[5]; [22]
  pest or weed control at 125 g/ha: 100%
  pest or weed control at 500 g/ha: 100%
[6]; [17]
  Plant response rating, Velvetleaf: 0
[6]; [18]
  Plant response rating, Velvetleaf: 0
[6]; [19]
  Plant response rating, Velvetleaf: 0
[6]; [20]
  Plant response rating, Velvetleaf: 0
[7]; [21]
  pest or weed control at 125 g/ha: 60%
  pest or weed control at 500 g/ha: 90%
[7]; [22]
  pest or weed control at 125 g/ha: 100%
  pest or weed control at 500 g/ha: 100%
[8]; [21]
  pest or weed control at 125 g/ha: 80%
  pest or weed control at 500 g/ha: 90%
[8]; [22]
  pest or weed control at 125 g/ha: 100%
  pest or weed control at 500 g/ha: 100%
[9]; Cyperus, pre-emergence, 16 g ai/ha, scale 0 to 100 (0 no effect, 100 complete control), read-out: Plant response rating, Nutsedge, Yellow
  pest or weed control at 16 g/ha: 0%
[9]; Cyperus, pre-emergence, 31 g ai/ha, 0 to 100 scale, 0 no effect, 100 complete control, read-out: Plant response rating, Nutsedge, Yellow
  pest or weed control at 31 g/ha: 0%
[9]; Cyperus, pre-emergence, 62 g ai/ha, scale 0 to 100, read-out: Plant response rating, Nutsedge, Yellow
  pest or weed control at 62 g/ha: 0%
[9]; 8 g ai/ha, scale 0 to 100
  Nutsedge, Yellow plant response rating: 0
[10]; Cynodon dactylon, pre-emergence, Preemergence, 16 g ai/ha, scale 0 to 100 (0 no effect, 100 complete control), read-out: Plant response rating, Bermudagrass
  pest or weed control at 16 g/ha: 90%
[10]; Cynodon dactylon, pre-emergence, Preemergence, 31 g ai/ha, 0 to 100 scale, 0 no effect, 100 complete control, read-out: Plant response rating, Bermudagrass
  pest or weed control at 31 g/ha: 100%
[10]; Cynodon dactylon, pre-emergence, Preemergence, 62 g ai/ha, scale 0 to 100, read-out: Plant response rating, Bermudagrass
  pest or weed control at 62 g/ha: 100%
[10]; Preemergence, 8 g ai/ha, scale 0 to 100 (0 no effect, 100 complete control)
  Bermudagrass plant response rating: 60
[11]; 8 g ai/ha, scale 0 to 100
  Cocklebur plant response rating: 0
[11]; Xanthium strumarium, pre-emergence, 16 g ai/ha, scale 0 to 100 (0 no effect, 100 complete control), read-out: Plant response rating, Cocklebur
  pest or weed control at 16 g/ha: 0%
[11]; Xanthium strumarium, pre-emergence, 31 g ai/ha, 0 to 100 scale, 0 no effect, 100 complete control, read-out: Plant response rating, Cocklebur
  pest or weed control at 31 g/ha: 0%
[11]; Xanthium strumarium, pre-emergence, 62 g ai/ha, scale 0 to 100, read-out: Plant response rating, Cocklebur
  pest or weed control at 62 g/ha: 0%
